Data from the supplement of paper PMC11061612.

Columns and labels:
Assay in all cases: combination Emax (second highest fraction inhibited in the dose matrix, 72 h); higher = more inhibition; extreme values may be limits of the assay
[1] = test system: ASH-3 (Thyroid Gland Carcinoma)
How it was run: (§1)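 Bliss excess equals the observed combination effect minus the expected value EA + EB − EA·EB, where EA and EB are the effects of each agent alone. Combination Emax is the second-highest inhibition within the matrix. Inhibition was scaled from CellTiter-Glo 2.0 luminescence, with 0 set by vehicle wells and 1 by blank wells, after 72 hours of two-drug dosing of cells plated in 1536-well plates.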

[2] = test system: BV-173 (Chronic Myelogenous Leukemia)
How it was run: as §1

[3] = test system: DG-75 (Burkitt's Lymphoma)
How it was run: as §1

[4] = test system: EMC-BAC-2 (Non-Small Cell Lung Carcinoma)
How it was run: as §1

GI-1 (Glioblastoma) = test system: GI-1 (Glioblastoma)
How it was run: as §1

GOTO (Neuroblastoma) = test system: GOTO (Neuroblastoma)
How it was run: as §1

[5] = test system: KINGS-1 (Low Grade Glioma)
How it was run: as §1

[6] = test system: KP-2 (Pancreatic Carcinoma)
How it was run: as §1

[7] = test system: KYSE-150 (Esophageal Squamous Cell Carcinoma)
How it was run: as §1

[8] = test system: KYSE-50 (Esophageal Squamous Cell Carcinoma)
How it was run: as §1

[9] = test system: LC4-1 (B-Lymphoblastic Leukemia)
How it was run: as §1

[10] = test system: LOU-NH91 (Squamous Cell Lung Carcinoma)
How it was run: as §1

[11] = test system: NCI-H2347 (Lung Adenocarcinoma)
How it was run: as §1

[12] = test system: NCI-H513 (Other Solid Carcinomas)
How it was run: as §1

NH-12 (Neuroblastoma) = test system: NH-12 (Neuroblastoma)
How it was run: as §1

[13] = test system: OCUM-1 (Gastric Carcinoma)
How it was run: as §1

[14] = test system: OVISE (Ovarian Carcinoma)
How it was run: as §1

[15] = test system: PF-382 (T-Lymphoblastic Leukemia)
How it was run: as §1

[16] = test system: PFSK-1 (Other Solid Carcinomas)
How it was run: as §1

[17] = test system: VMRC-LCD (Lung Adenocarcinoma)
How it was run: as §1

Compound | combination Emax [1] | combination Emax [2] | combination Emax [3] | combination Emax [4] | combination Emax (GI-1 (Glioblastoma)) | combination Emax (GOTO (Neuroblastoma)) | combination Emax [5] | combination Emax [6] | combination Emax [7] | combination Emax [8] | combination Emax [9] | combination Emax [10] | combination Emax [11] | combination Emax [12] | combination Emax (NH-12 (Neuroblastoma)) | combination Emax [13] | combination Emax [14] | combination Emax [15] | combination Emax [16] | combination Emax [17]
Cc1c2c(nn1C)CSCc1cc(n(C)n1)CSc1cc(c3ccccc3c1)OCCCc1c(C(=O)O)n(C)c3c-2c(Cl)ccc13 [AZD5991] + Cn1cnc2c(F)c(Nc3ccc(Br)cc3Cl)c(C(=O)NOCCO)cc21 [Selumetinib] (first compound max 1 µM, 7x7, partner max 3 µM) | 0.368 | 0.938 | 0.112 | 0.834 | 0.726 | 0.714 | 0.354 | 0.749 | 0.488 | 0.292 | 1 | 0.581 | 0.41 | 0.473 | 0.568 | 0.895 | 0.291 | 0.207 | 1 | 0.174
NC1(C(=O)N[C@@H](CCO)c2ccc(Cl)cc2)CCN(c2ncnc3[nH]ccc23)CC1 [Capivasertib] + CC(=O)c1c(C)c2cnc(Nc3ccc(N4CCNCC4)cn3)nc2n(C2CCCC2)c1=O [Palbociclib] (first compound max 10 µM, 7x7, partner max 10 µM) | 0.581 | 0.87 | 0.744 | 0.663 | 0.626 | 0.81 | 0.414 | 0.451 | 0.644 | 0.326 | 0.578 | 0.5 | 0.271 | 0.368 | 0.519 | 0.582 | 0.467 | 0.743 | 0.489 | 0.127
NC1(C(=O)N[C@@H](CCO)c2ccc(Cl)cc2)CCN(c2ncnc3[nH]ccc23)CC1 [Capivasertib] + CC(C)n1c(=O)n(C)c2cnc3cc(F)c(-c4ccc(OCCCN5CCCCC5)nc4)cc3c21 [AZD1390] (first compound max 10 µM, 7x7, partner max 0.3 µM) | 0.384 | 0.51 | 0.38 | 0.462 | 0.658 | 0.433 | 0.374 | 0.102 | 0.375 | 0.14 | 0.465 | 0.456 | 0.196 | 0.171 | 0.363 | 0.571 | 0.387 | 0.612 | 0.462 | 0.0998
NC1(C(=O)N[C@@H](CCO)c2ccc(Cl)cc2)CCN(c2ncnc3[nH]ccc23)CC1 [Capivasertib] + CCN(CCO)CCCOc1ccc2c(Nc3cc(CC(=O)Nc4cccc(F)c4)[nH]n3)ncnc2c1 [AZD2811] (first compound max 10 µM, 7x7, partner max 1 µM) | 0.451 | 0.915 | 0.606 | 0.564 | 0.754 | 0.793 | 0.429 | 0.132 | 0.536 | 0.388 | 0.905 | 0.519 | 0.231 | 0.19 | 0.728 | 0.683 | 0.41 | 0.916 | 0.532 | 0.59
NC1(C(=O)N[C@@H](CCO)c2ccc(Cl)cc2)CCN(c2ncnc3[nH]ccc23)CC1 [Capivasertib] + COc1nnc2ccc(N3CCC(c4ccc(OCCN5CCN(C)C(=O)[C@H]5C)cc4)CC3)nn12 [AZD5153] (first compound max 10 µM, 7x7, partner max 1 µM) | 0.831 | 0.905 | 0.884 | 0.769 | 0.915 | 0.802 | 0.349 | 0.442 | 0.796 | 0.525 | 0.99 | 0.656 | 0.314 | 0.416 | 0.634 | 0.596 | 0.526 | 1 | 0.581 | 0.454
NC1(C(=O)N[C@@H](CCO)c2ccc(Cl)cc2)CCN(c2ncnc3[nH]ccc23)CC1 [Capivasertib] + C[C@@H]1COCCN1C2=NC(=NC(=C2)C3(CC3)[S@](=N)(=O)C)C4=C5C=CNC5=NC=C4 [AZD6738] (first compound max 10 µM, 7x7, partner max 10 µM) | 0.697 | 0.956 | 0.845 | 0.728 | 0.944 | 0.948 | 0.425 | 0.17 | 0.681 | 0.676 | 0.949 | 0.569 | 0.327 | 0.386 | 0.832 | 0.774 | 0.694 | 0.974 | 0.699 | 0.566
